We go through eleven molecules from ChEMBL document CHEMBL1201862, “PubChem BioAssay data set” (2004).

Some test systems named below: 786-0; A498; A549; BT-549; CAKI-1; CCRF-CEM; HCT-116; Hs-578T; MOLT-4; NCI/ADR-RES; OVCAR-4; OVCAR-5; OVCAR-8; PC-3; RXF 393; SF-268; T47D; U-251; UO-31; EKVX.
Holding throughout (assay): NCI anticancer screen, dose series, 48 h

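These data come from cells grown in 96-well plates and exposed to compound for 48 hours at five concentrations. GI50 marks 50% less growth.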 Active and inactive are the calls of the source. No stated cut-off is given here; in the data, active = GI50 up to about 1.1 µM and inactive = higher.

Regarding `O=C(Cn1c2ccc(Br)cc2c2nc3ccccc3nc21)NCc1ccccc1`, the GI50 in the assay on 786-0 was 13 µM (inactive); with A498 it was 31.2 µM (inactive); with A549, > 100 µM (inactive); in the assay with BT-549, 39.9 µM (inactive); with CAKI-1 it was 26.8 µM (inactive); with CCRF-CEM it was > 100 µM (inactive). The GI50 in the assay on HCT-116 is 94.6 µM (inactive); in the assay with Hs-578T, 22.1 µM (inactive); with MOLT-4, > 100 µM (inactive); in the assay with NCI/ADR-RES, > 100 µM (inactive); in the assay on OVCAR-4, 53.1 µM (inactive); in the assay on OVCAR-5 it was > 100 µM (inactive). Further, the GI50 in the assay with OVCAR-8 was 23.4 µM (inactive); with PC-3, > 100 µM (inactive); in the assay with RXF 393, 12 µM (inactive); in the assay on SF-268 it was 38 µM (inactive); with T47D, 4.1 µM (inactive); with U-251, 15 µM (inactive). The GI50 in the assay on UO-31 is > 100 µM (inactive).

With `CCCCOC(=O)C1CC[C@H]2[C@@H]3CCc4cc(OC(=O)c5cccc6c(=O)c7ccccc7[nH]c56)ccc4[C@H]3CC[C@]12C` (stereo not given in full), the GI50 with 786-0 is 9.89 µM (inactive); in the assay on A498, 8.83 µM (inactive); in the assay with A549, 9.35 µM (inactive); in the assay on BT-549, 8.17 µM (inactive); in the assay with CAKI-1, 7.19 µM (inactive); with EKVX, 2.48 µM (inactive). For the same molecule, the GI50 was 9.31 µM (inactive) in the assay with HCT-116; 12.9 µM (inactive) with Hs-578T; 8.81 µM (inactive) in the assay with MOLT-4; 11 µM (inactive) in the assay with NCI/ADR-RES; 7.78 µM (inactive) in the assay on OVCAR-4; 11.3 µM (inactive) in the assay on OVCAR-5. Moreover, the GI50 in the assay with OVCAR-8 is 10.7 µM (inactive); with PC-3 it was 8.71 µM (inactive); in the assay on RXF 393, 9.48 µM (inactive); in the assay with SF-268, 9.44 µM (inactive); with T47D it was 7.33 µM (inactive); with U-251 it was 9.79 µM (inactive). In addition, the GI50 with UO-31 is 8.17 µM (inactive).

For `CCOc1ccc(Nc2nc(N)nc(N)c2N)cc1`, the GI50 with 786-0 was 22.3 µM (inactive); with A498, > 100 µM (inactive); in the assay on A549, 45.2 µM (inactive); in the assay on BT-549, 23.2 µM (inactive); with CAKI-1, 28.6 µM (inactive); in the assay on CCRF-CEM, 20.2 µM (inactive). The GI50 in the assay with EKVX is > 100 µM (inactive); in the assay with HCT-116 it was 30.7 µM (inactive); in the assay with Hs-578T it was 18.2 µM (inactive); in the assay on MOLT-4 it was 19.8 µM (inactive); with NCI/ADR-RES it was 37 µM (inactive); with OVCAR-4, 18.4 µM (inactive). For the same molecule, the GI50 is 29.6 µM (inactive) in the assay with OVCAR-5; 45.2 µM (inactive) in the assay on OVCAR-8; 45.3 µM (inactive) with PC-3; 15.6 µM (inactive) in the assay with SF-268; 21.4 µM (inactive) in the assay on T47D; 24.1 µM (inactive) with U-251. Also, in the assay with UO-31, the GI50 was 11 µM (inactive).

For the molecule `O=C1CSC(c2ccccc2[N+](=O)[O-])N1c1ccc(-n2c(-c3ccccc3)nc3ccccc3c2=O)cc1` (stereo not given), the GI50 in the assay on 786-0 was 31.4 µM (inactive); with A498, 38.4 µM (inactive); in the assay on A549 it was 63.2 µM (inactive); with BT-549 it was 57.7 µM (inactive); in the assay on CAKI-1, 67.9 µM (inactive); with CCRF-CEM it was 41.1 µM (inactive). Besides, the GI50 in the assay on EKVX is 47.4 µM (inactive); in the assay with HCT-116, 37.8 µM (inactive); with Hs-578T, 20.8 µM (inactive); in the assay on MOLT-4, 16.6 µM (inactive); with NCI/ADR-RES it was > 100 µM (inactive); in the assay with OVCAR-4, 23.4 µM (inactive). For the same molecule, the GI50 in the assay on OVCAR-5 is > 100 µM (inactive); with OVCAR-8, 40.4 µM (inactive); with PC-3 it was 35.7 µM (inactive); with SF-268, 46.9 µM (inactive); in the assay on T47D it was 23.7 µM (inactive); in the assay with U-251 it was 17.7 µM (inactive). Further, the GI50 in the assay with UO-31 was 13.9 µM (inactive).

`CSC[C@H](NC(=O)COc1cccc2cnccc12)C(=O)NC(Cc1ccccc1)C(O)C(=O)N1CSC[C@H]1C(=O)NC(C)(C)C` (stereo not given in full): the GI50 was 44.5 µM (inactive) in the assay with 786-0; 68.2 µM (inactive) in the assay with A498; 32.4 µM (inactive) with A549; > 100 µM (inactive) in the assay with BT-549; 26.5 µM (inactive) with CCRF-CEM; 23 µM (inactive) with HCT-116. For the same molecule, the GI50 is 89.3 µM (inactive) in the assay with Hs-578T; 17.7 µM (inactive) in the assay with MOLT-4; > 100 µM (inactive) in the assay with NCI/ADR-RES; 57.5 µM (inactive) in the assay with OVCAR-4; > 100 µM (inactive) in the assay with OVCAR-5; 78.3 µM (inactive) in the assay with OVCAR-8. The GI50 in the assay with PC-3 was 24 µM (inactive); in the assay on RXF 393 it was 29.2 µM (inactive); with SF-268, 16.9 µM (inactive); with T47D, 36.6 µM (inactive); with U-251, 95.3 µM (inactive); in the assay on UO-31, 86.3 µM (inactive).

As for `Cn1c2c(c3ccccc31)CC(=S)N1CCCC(CC2O)C1` (stereo not given), the GI50 with 786-0, in the assay on A498, in the assay with A549, with BT-549, with CAKI-1 and with HCT-116 was > 100 µM (inactive) throughout. Besides, the GI50 with Hs-578T, in the assay with NCI/ADR-RES, in the assay on OVCAR-4, in the assay with OVCAR-8, in the assay with PC-3 and in the assay with SF-268 was > 100 µM (inactive) in each case. Moreover, the GI50 in the assay on T47D is > 100 µM (inactive); in the assay on U-251, > 100 µM (inactive); in the assay with UO-31, 45.8 µM (inactive).

Consider `O=c1[nH]/c(=C/c2ccc(OCc3ccccc3)cn2)c(=O)[nH]/c1=C/c1ccc(F)cc1`, for which the GI50 in the assay with 786-0 is 0.447 µM (active); in the assay on A498, 0.834 µM (active); in the assay on A549, 1.8 µM (inactive); in the assay on BT-549 it was 4.97 µM (inactive); with CCRF-CEM, 0.458 µM (active); with EKVX it was 3.49 µM (inactive). Moreover, the GI50 in the assay on HCT-116 is 0.461 µM (active); with Hs-578T, 0.542 µM (active); in the assay on MOLT-4, 0.4 µM (active); with NCI/ADR-RES, 0.614 µM (active); in the assay with OVCAR-5, > 33.3 µM (inactive); in the assay on OVCAR-8, 3.74 µM (inactive). Moreover, the GI50 was 0.632 µM (active) in the assay on PC-3; 0.243 µM (active) in the assay with RXF 393; 1.73 µM (inactive) in the assay on SF-268; 1.42 µM (inactive) in the assay on T47D; 1.05 µM (active) in the assay on U-251; 0.498 µM (active) in the assay on UO-31.

With `COc1cc(OC)c2nccc(NCCCN(C)C)c2c1[N+](=O)[O-]`, the GI50 with 786-0, in the assay with A498, in the assay with A549, with BT-549, in the assay on CAKI-1 and in the assay with CCRF-CEM was > 100 µM (inactive) in each case. In addition, the GI50 was 62.4 µM (inactive) with HCT-116; > 100 µM (inactive) in the assay with Hs-578T; > 100 µM (inactive) in the assay on MOLT-4; > 100 µM (inactive) with NCI/ADR-RES; > 100 µM (inactive) with OVCAR-4; > 100 µM (inactive) in the assay on OVCAR-5. Further, the GI50 in the assay with OVCAR-8, with PC-3, in the assay on SF-268, in the assay with T47D, with U-251 and in the assay on UO-31 was > 100 µM (inactive) in each case.

On to `O=C1CC(C(CC(=O)c2ccccc2)c2ccccc2)C(=O)c2ccccc2N1` (stereo not given), for which the GI50 in the assay on 786-0 is > 100 µM (inactive); in the assay with A498 it was > 100 µM (inactive); in the assay with A549, 38.2 µM (inactive); with BT-549, 29.1 µM (inactive); in the assay on CCRF-CEM, 25.9 µM (inactive); in the assay with EKVX it was 40.5 µM (inactive). In addition, the GI50 in the assay on HCT-116 was 49.3 µM (inactive); in the assay on Hs-578T, 43.5 µM (inactive); in the assay with MOLT-4 it was 17.8 µM (inactive); in the assay on NCI/ADR-RES it was 15.1 µM (inactive); in the assay on OVCAR-5, 56 µM (inactive); in the assay with OVCAR-8 it was 27.8 µM (inactive). For the same molecule, the GI50 is 25.5 µM (inactive) in the assay with PC-3; 53.6 µM (inactive) with SF-268; 20.7 µM (inactive) with T47D; 84.7 µM (inactive) in the assay on U-251; 14.2 µM (inactive) in the assay on UO-31.

As to `CC(C)(C)c1ccc(C(O)(c2ccc(C(C)(C)C)cc2)c2ccc(C(C)(C)C)cc2)cc1`, the GI50 in the assay on 786-0, in the assay with A498, in the assay on A549, in the assay on BT-549, in the assay on CAKI-1 and in the assay on CCRF-CEM was > 100 µM (inactive) throughout. Also, the GI50 is > 100 µM (inactive) with EKVX; > 100 µM (inactive) with HCT-116; 70.5 µM (inactive) in the assay on Hs-578T; > 100 µM (inactive) in the assay with MOLT-4; > 100 µM (inactive) with NCI/ADR-RES; > 100 µM (inactive) in the assay with OVCAR-4. Further, the GI50 with OVCAR-5, in the assay on OVCAR-8, in the assay on PC-3, in the assay with SF-268, in the assay on T47D and in the assay with U-251 was > 100 µM (inactive) each time. The GI50 with UO-31 was > 100 µM (inactive).

As for `Fc1cc(C2=Nn3c(CNc4ccc(Cl)cc4)nnc3S/C2=C\c2ccc(-c3ccc(Cl)cc3)o2)c(Cl)cc1Cl`, the GI50 in the assay on 786-0 is 32.3 µM (inactive); in the assay on A498 it was 17.5 µM (inactive); in the assay on A549 it was 35.6 µM (inactive); with BT-549, > 100 µM (inactive); with CAKI-1 it was 23.6 µM (inactive); in the assay on CCRF-CEM it was 67.1 µM (inactive). The GI50 in the assay on EKVX is 7.52 µM (inactive); with HCT-116 it was 63.2 µM (inactive); in the assay on Hs-578T, 46.7 µM (inactive); in the assay with MOLT-4 it was 3.33 µM (inactive); with NCI/ADR-RES it was 6.53 µM (inactive); with OVCAR-5, 18.7 µM (inactive). Besides, the GI50 is 51.1 µM (inactive) in the assay with OVCAR-8; 14.9 µM (inactive) with PC-3; 13.4 µM (inactive) in the assay with RXF 393; 53.2 µM (inactive) in the assay on SF-268; 41.7 µM (inactive) with T47D; 18.6 µM (inactive) in the assay with U-251. Moreover, in the assay with UO-31, the GI50 was 11.8 µM (inactive).
